Measured values published in ChEMBL document CHEMBL1201862, “PubChem BioAssay data set” (2004).
The source made the active and inactive calls.

What was measured:
Format in all cases: functional
[1] = molecular target: T1, Corticotropin-releasing factor receptor 2/Corticotropin-releasing factor-binding protein (Homo sapiens, UniProt P24387+Q13324); experiment: Dose Response confirmation of uHTS hits for small molecule antagonists of the CRF-binding protein and CRF-R2 receptor complex.; details: read-out: IC50_Mean
T1 sequence (Q13324 whole entry): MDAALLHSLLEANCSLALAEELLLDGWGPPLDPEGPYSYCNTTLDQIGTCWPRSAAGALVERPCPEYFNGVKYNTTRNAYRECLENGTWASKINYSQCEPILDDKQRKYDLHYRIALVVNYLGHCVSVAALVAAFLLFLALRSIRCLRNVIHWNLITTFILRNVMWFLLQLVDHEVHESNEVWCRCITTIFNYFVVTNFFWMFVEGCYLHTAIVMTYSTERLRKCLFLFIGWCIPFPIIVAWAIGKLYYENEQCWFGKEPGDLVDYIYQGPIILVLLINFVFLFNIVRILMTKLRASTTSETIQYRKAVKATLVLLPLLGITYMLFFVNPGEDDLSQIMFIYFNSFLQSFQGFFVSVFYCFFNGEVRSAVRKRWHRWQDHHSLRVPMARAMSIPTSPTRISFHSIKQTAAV
T1 sequence (P24387 whole entry): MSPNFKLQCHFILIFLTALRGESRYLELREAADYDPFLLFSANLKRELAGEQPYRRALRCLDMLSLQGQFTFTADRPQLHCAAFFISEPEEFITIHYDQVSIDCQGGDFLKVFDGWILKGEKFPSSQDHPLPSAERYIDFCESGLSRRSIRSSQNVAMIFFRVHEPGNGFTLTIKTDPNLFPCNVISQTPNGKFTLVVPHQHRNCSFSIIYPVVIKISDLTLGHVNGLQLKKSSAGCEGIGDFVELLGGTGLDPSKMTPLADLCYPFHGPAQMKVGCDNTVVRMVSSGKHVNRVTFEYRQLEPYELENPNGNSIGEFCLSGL

[2] = molecular target: T1, Corticotropin-releasing factor receptor 2/Corticotropin-releasing factor-binding protein; experiment: activators of CRF receptor 2 with binding protein – uHTS hits, confirmation (AID 602473); details: read-out: EC50_Mean
[3] = molecular target: T2, Replicative DNA helicase DnaB (Mycobacterium tuberculosis, UniProt P9WMR3); experiment: DnaB intein splicing inhibitors, dose response, biochemical, cell-free fluorescence (AID 449749)
T2 sequence (P9WMR3 whole entry): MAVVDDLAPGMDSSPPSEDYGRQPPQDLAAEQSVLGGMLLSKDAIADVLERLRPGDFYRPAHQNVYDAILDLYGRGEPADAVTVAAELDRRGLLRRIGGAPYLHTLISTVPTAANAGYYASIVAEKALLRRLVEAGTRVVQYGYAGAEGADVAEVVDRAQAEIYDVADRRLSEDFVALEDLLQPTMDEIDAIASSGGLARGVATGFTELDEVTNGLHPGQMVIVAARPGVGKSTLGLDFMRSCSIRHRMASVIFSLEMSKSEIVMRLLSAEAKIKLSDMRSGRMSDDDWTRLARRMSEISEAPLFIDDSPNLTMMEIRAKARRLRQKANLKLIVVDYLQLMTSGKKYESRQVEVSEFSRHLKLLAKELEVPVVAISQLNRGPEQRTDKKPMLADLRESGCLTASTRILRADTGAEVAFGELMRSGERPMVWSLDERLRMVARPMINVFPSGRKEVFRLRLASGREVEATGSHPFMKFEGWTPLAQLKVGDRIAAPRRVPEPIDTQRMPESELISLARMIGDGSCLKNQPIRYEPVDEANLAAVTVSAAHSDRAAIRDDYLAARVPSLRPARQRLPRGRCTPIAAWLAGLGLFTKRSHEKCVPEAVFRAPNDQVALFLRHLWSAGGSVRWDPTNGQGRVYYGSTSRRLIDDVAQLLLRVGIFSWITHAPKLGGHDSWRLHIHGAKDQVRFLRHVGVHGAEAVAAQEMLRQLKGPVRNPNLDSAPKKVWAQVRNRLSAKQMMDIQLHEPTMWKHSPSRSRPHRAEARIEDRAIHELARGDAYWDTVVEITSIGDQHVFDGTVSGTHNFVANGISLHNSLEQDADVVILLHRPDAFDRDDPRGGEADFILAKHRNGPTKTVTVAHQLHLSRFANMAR

Protein RecA = molecular target: T3, Protein RecA (Mycobacterium tuberculosis, UniProt P9WHJ3); experiment: Fluorescence Cell-Free Homogeneous Dose Retest to Identify Inhibitors of RecA-Intein Splicing Activity. [Related pubchem assays (depositor defined):AID2097, AID2223, AID489010, AID492950]
T3 sequence (P9WHJ3 whole entry): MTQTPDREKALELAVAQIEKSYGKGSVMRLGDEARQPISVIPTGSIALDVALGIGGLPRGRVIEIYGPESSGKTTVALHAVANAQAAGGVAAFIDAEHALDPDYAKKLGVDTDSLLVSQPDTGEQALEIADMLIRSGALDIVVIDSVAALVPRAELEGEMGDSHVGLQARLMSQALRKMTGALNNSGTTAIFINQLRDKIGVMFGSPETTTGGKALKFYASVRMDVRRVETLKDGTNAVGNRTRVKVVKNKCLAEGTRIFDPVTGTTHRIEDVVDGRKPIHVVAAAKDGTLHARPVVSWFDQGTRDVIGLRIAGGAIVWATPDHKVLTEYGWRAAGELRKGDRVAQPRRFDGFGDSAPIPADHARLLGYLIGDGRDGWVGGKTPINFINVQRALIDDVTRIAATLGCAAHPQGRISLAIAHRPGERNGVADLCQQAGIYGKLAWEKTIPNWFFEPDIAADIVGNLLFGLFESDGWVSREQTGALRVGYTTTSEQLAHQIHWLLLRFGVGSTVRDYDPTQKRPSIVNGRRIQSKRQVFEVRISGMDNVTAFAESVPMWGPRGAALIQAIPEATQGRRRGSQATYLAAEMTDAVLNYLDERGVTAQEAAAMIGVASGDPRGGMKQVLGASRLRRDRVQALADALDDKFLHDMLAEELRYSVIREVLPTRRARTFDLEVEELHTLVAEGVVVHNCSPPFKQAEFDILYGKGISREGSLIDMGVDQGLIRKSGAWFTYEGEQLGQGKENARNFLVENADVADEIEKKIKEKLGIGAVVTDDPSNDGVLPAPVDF

[4] = HEp-2 cell cytotoxicity, dose response, cytotoxicity control for RSV inhibitor project, HTS (AID 2410); details: human respiratory syncytial virus

Row | SMILES | IC50 [1] | EC50 [2] | also measured
1 | Nc1ccccc1SC1CC(=O)N(c2ccc3c(c2)OCO3)C1=O (stereo not drawn) | > 47.1 µM (inactive) | > 53 µM (inactive) | –
2 | CSc1ccccc1NC(=O)COC(=O)c1c[nH]c(=O)[nH]c1=O | – | > 53 µM (inactive) | –
3 | O=C(CCN1CCCC1=O)NC1CCCc2c1cnn2-c1ccccc1F (stereo not drawn) | > 47.1 µM (inactive) | > 53 µM (inactive) | –
4 | O=C1C([O-])=C([n+]2ccccc2)C(=O)c2ccccc21 | – | – | AC50 [3]: 2.79 µM (active); EC50 (Protein RecA): 3.52 µM (active)
5 | CCN1N=C(c2cc(Cl)sc2Cl)CSC1=O | – | – | CC50 [4]: > 50 µM (active)
6 | COC(=O)C(C)N(C(=O)c1cccc2ccccc12)c1c(C)cccc1C (stereo not drawn) | – | – | CC50 [4]: 19.9 µM (active)
7 | CC1=C(C#N)C(=O)NC(C)(C)C1 | > 47.1 µM (inactive) | > 53 µM (inactive) | –
8 | Cc1c(C(=O)Nc2cccc([N+](=O)[O-])c2)sc2ncn(CC(=O)N3CCOCC3)c(=O)c12 | > 47.1 µM (inactive) | > 53 µM (inactive) | –
9 | O=C(COc1cccc(Cl)c1)Nc1ccc(N2CCOCC2)cc1 | > 47.1 µM (inactive) | > 53 µM (inactive) | –
10 | CCCC(=O)Nc1ccc2c(c1)Cc1ccccc1-2 | – | – | CC50 [4]: > 50 µM (active)
11 | COc1ccc(N(CC(=O)N/N=C/c2ccc3c(c2)OCO3)S(=O)(=O)c2ccc(NC(C)=O)cc2)cc1 | > 47.1 µM (inactive) | > 53 µM (inactive) | –
12 | Cc1cc(=O)n(-c2ccc(C(=O)O)cc2)[nH]1 | – | – | AC50 [3]: 1.9 µM (active); EC50 (Protein RecA): 1.92 µM (active)
13 | CC(C)Cc1ccc(-c2cc(O)[nH]n2)cc1 | – | – | AC50 [3]: 1.79 µM (active); EC50 (Protein RecA): 0.664 µM (active)
14 | Cc1cc(C)cc(NC(=O)c2ccc(N3C(=O)C4CCCCC4C3=O)cc2)c1 (stereo not drawn) | > 47.1 µM (inactive) | > 53 µM (inactive) | –
15 | Cc1occc1C(=O)N/N=C/C(Br)=C/c1ccccc1 | – | – | CC50 [4]: 32 µM (active)
16 | Cc1cc(O)c(C(C)C)cc1/N=C\c1ccccc1O | – | – | AC50 [3]: 4.29 µM (active); EC50 (Protein RecA): 8.89 µM (active)
17 | COc1ccccc1NS(=O)(=O)c1cc(C(=O)N2CCCC2)ccc1F | > 47.1 µM (inactive) | > 53 µM (inactive) | –
18 | Nc1nonc1-n1nnc(C(=O)N/N=C/c2ccccc2)c1CSc1ccc(Cl)cc1 | – | > 53 µM (inactive) | –
19 | CCOc1ccc(C2C(C#N)=C(N)Oc3[nH]nc(C)c32)cc1OC(=O)C1CC1 (stereo not drawn) | – | – | AC50 [3]: 17.7 µM (active); EC50 (Protein RecA): 9.82 µM (active)
20 | CC12CC3CC(C)(C1)CC(C(=O)NNC(=O)c1ccncc1)(C3)C2 | > 47.1 µM (inactive) | > 53 µM (inactive) | –

Row | SMILES | IC50 [1] | EC50 [2] | also measured
21 | Cc1ccc2c(cnn2C(=O)CCC(=O)N2CCCCC2)c1 | > 47.1 µM (inactive) | > 53 µM (inactive) | –
22 | CC(=O)c1cc(F)c(N2CCN(C(=O)C(C)(C)C)CC2)cc1C | > 47.1 µM (inactive) | > 53 µM (inactive) | –
23 | COCCN1CCC(CO)C1 (stereo not drawn) | > 47.1 µM (inactive) | > 53 µM (inactive) | –
24 | CSc1ccccc1C(=O)N1CCN(S(=O)(=O)c2sc(C(=O)O)c(C)c2C(=O)O)CC1 | > 47.1 µM (inactive) | > 53 µM (inactive) | –
25 | CS/C(=C\[N+](=O)[O-])Nc1ccc(OC(F)(F)F)cc1 | – | – | AC50 [3]: 14.6 µM (active); EC50 (Protein RecA): 7.21 µM (active)
26 | Cc1cc2c3c(c1)C(C)CC(C)(C)N3C(=O)C2=C(C#N)C#N (stereo not drawn) | – | – | AC50 [3]: 23.8 µM (active); EC50 (Protein RecA): 2.22 µM (active)
27 | CCC(=O)Nc1cccc(-c2csc(-c3ccccc3)n2)c1 | – | – | CC50 [4]: 26.4 µM (active)
28 | Cc1onc(-c2ccccc2)c1CNC(=O)CN1C(=O)c2ccccc2C1=O | > 47.1 µM (inactive) | > 53 µM (inactive) | –
29 | N#C/C(=C\c1cccc(O)c1)c1nc2ccccc2o1 | – | – | AC50 [3]: 53.1 µM (active); EC50 (Protein RecA): 9.27 µM (active)
30 | COc1ccc(-c2csc(NC(=O)CS(=O)(=O)c3ccccc3)n2)cc1 | – | – | CC50 [4]: 20.4 µM (active)
31 | CCn1c(SCC(=O)N2CCN(c3cccc(Cl)c3)CC2)nc2ccccc2c1=O | – | – | CC50 [4]: 47.5 µM (active)
32 | Cc1cc(/C=C(/C#N)c2nc3ccccc3[nH]2)c(C)n1-c1cccc([N+](=O)[O-])c1 | – | – | CC50 [4]: 22.6 µM (active)
33 | C/C(=N\NC1=NC(=O)C(CC(=O)Nc2ccc(C)c(Cl)c2)S1)C(C)(C)C (stereo not drawn) | – | – | CC50 [4]: 13.8 µM (active)
34 | Cc1c(C(c2ccc(N(C)C)cc2)c2c(C)n(C)n(-c3ccccc3)c2=O)c(=O)n(-c2ccccc2)n1C | > 47.1 µM (inactive) | > 53 µM (inactive) | –
35 | CN(CCc1cnn(C)c1)C(=O)C1CCC(=O)N(CC2CCCCC2)C1 (stereo not drawn) | – | – | AC50 [3]: > 380 µM (inactive); EC50 (Protein RecA): > 380 µM (inactive)
36 | O=C1C(Cl)=C(NCC2CCCO2)C(=O)N1c1ccccc1 (stereo not drawn) | – | – | AC50 [3]: 18.8 µM (active); EC50 (Protein RecA): 6.58 µM (active)
37 | CCn1cc(C(=O)NCCCN(CC(C)C)CC(C)C)c(=O)c2cc(S(=O)(=O)N(C)C3CCCCC3)ccc21 | – | 7.06 µM (active) | –
38 | O=C(CCl)N(c1ccccc1)c1ccccc1 | – | – | AC50 [3]: 17.1 µM (active); EC50 (Protein RecA): 0.484 µM (active)
39 | CC(C)(CSc1ncccn1)NS(=O)(=O)c1ccccc1 | > 47.1 µM (inactive) | > 53 µM (inactive) | –
40 | CCOc1cc2[nH]c(=O)n(Cc3ccccc3)c(=O)c2cc1OCC | > 47.1 µM (inactive) | > 53 µM (inactive) | –
